Measurements as given in patent publication US11420966B2 (ACLARIS THERAPEUTICS, INC., priority 2019, dated 2022).
Structures can show the parent of a compound that is named as a salt.

What was measured:
[1] = system: IFNγ stimulated STAT1 phosphorylation on Tyr701 (JAK1/2); assay: JAK1/2 cellular target modulation: IFNγ stimulated phospho-STAT1 in PBMC; type: cell-based; conditions: human PBMC, IFNγ 10 ng/ml; read-out: Infγ-STAT1 IC50
Source text: (§1) JAK Cellular Target Modulation Assays
(§2) Target modulation was based upon the ability of a compound to inhibit JAK isoform specific phosphorylation of selected substrates. IL-2 stimulated STAT5 phosphorylation on Tyr694 was used to assess JAK1/3 compound selectivity. GM-CSF stimulated STAT5 phosphorylation on Tyr694 was used to assess JAK2 compound selectivity. IFNγ stimulated STAT1 phosphorylation on Tyr701 was used to assess JAK1/2 compound selectivity. IL-12 stimulated STAT4 phosphorylation on Tyr693 was used to assess JAK2/TYK2 compound selectivity. For all four assays, human PBMC from frozen stocks were thawed, pelleted, resuspended in complete media (90% RPMI, 10% heat inactivated FBS, 10 mM HEPES, 47 μM 2-ME, pen/strep) and placed in wells of a 96 well V-bottom plate at 200,000 per well in 120 μl complete media. Compounds were added as 15 μl per well of 10× working stock solutions in complete media with 1% DMSO (or medium with 1% DMSO for controls) and placed on a plate shaker in a 37° C. incubator with 5% CO2 for 1 hour with gentle shaking (setting of 3). Stimulation used the addition of soluble cytokines. For the JAK1/3 phospho-STAT5 assay, 15 μl of 10× working stock recombinant human IL-2 was added to a final concentration of 25 ng/ml. For the JAK2 phospho-STAT5 assay, 15 μl of 10× working stock recombinant human GM-CSF was added to a final concentration of 5 ng/ml. For the JAK1/2 phospho-STAT1 assay, 15 μl of 10× working stock of recombinant human IFNγ was added to a final concentration of 10 ng/ml. For the JAK2/TYK2 phospho-STAT4 assay, 15 μl of 10× working stock of recombinant human IL-12 was added to a final concentration of 1.7 ng/ml. Plates were then placed back on the plate shaker in the incubator for an additional 5, 5, 10, and 25 minutes respectively upon which the plates were removed from the incubator, sealed with a plate sealer and the cells pelleted at 400×g for 5 minutes. After pelleting, the media was removed by aspiration and the cells were lysed in assay specific cell lysis buffer. The levels of phospho-STATS were determined using a Phospho (Tyr694) STAT5a,b Whole Cell Lysate kit from Meso Scale Discovery. Levels of phospho-STAT1 were determined using a CST-PathScan Phospho-STAT1 (Tyr701) Sandwich ELISA kit. Levels of phospho-STAT4 were determined using a Phospho-STAT4 (Tyr693) Whole Cell Lysate kit from Meso Scale Discovery.

Tyk-2 = Tyk-2 (Homo sapiens (Human), UniProt P29597); assay: Tyk-2 enzyme activity assay (Thermo Fisher SelectScreen, Z-lyte); type: biochemical; conditions: read-out: Tyk-2 Inhibition IC50
Sequence of Tyk-2 (P29597 whole entry): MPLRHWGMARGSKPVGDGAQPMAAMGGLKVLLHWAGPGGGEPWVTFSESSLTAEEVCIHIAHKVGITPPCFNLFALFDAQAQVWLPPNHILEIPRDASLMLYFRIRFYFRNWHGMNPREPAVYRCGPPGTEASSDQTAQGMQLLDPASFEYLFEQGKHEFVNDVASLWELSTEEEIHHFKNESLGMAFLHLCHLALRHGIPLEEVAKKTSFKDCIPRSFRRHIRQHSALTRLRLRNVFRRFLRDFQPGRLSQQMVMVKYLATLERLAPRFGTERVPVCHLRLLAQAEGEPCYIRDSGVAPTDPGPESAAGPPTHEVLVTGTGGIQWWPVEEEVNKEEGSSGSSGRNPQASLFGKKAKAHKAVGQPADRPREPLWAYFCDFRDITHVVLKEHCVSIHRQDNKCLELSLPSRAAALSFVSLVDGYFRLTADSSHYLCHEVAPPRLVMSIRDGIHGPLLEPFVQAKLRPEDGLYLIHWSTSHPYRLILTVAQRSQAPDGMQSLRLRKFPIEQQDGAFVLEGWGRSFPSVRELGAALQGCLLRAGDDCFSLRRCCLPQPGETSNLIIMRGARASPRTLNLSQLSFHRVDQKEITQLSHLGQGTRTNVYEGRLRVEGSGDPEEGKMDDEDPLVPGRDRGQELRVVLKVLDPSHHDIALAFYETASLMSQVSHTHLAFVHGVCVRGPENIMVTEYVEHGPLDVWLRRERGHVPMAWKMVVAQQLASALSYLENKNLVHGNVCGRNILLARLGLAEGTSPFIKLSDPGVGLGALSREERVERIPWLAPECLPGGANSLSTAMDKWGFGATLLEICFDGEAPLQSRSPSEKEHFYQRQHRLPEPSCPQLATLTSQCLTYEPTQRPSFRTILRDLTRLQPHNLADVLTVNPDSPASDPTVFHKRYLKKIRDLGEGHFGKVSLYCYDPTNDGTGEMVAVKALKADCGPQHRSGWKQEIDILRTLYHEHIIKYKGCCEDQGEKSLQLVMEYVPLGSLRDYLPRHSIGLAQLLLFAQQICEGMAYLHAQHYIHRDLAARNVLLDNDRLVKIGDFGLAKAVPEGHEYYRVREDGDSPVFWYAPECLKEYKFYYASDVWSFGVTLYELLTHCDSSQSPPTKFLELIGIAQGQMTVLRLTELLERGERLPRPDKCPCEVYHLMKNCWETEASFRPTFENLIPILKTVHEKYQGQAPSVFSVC
Procedure: (§3) JAK1, JAK2, JAK3, and Tyk-2 Enzyme Activity Assays
(§4) The inhibitory potency of candidate compounds of JAK1, JAK2, and Tyk-2 was done at Thermo Fisher Scientific in their Selectscreen using a Z-lyte assay. Following are the assay details for each enzyme.
TYK2: The 2×TYK2/Tyr 03 mixture is prepared in 50 mM HEPES pH 6.5, 0.01% BRIJ-35, 10 mM MgCl2, 1 mM EGTA, 0.02% NaN3. The final 10 μL Kinase Reaction consists of 3.75-15 ng TYK2 and 2 M Tyr 03 in 50 mM HEPES pH 7.0, 0.01% BRIJ-35, 10 mM MgCl2, 1 mM EGTA, 0.01% NaN3. After the one hour KinaseReaction incubation, 5 μL of a 1:4096 dilution of Development Reagent A is added.
(§5) Data reduction for JAK1, JAK2 and TYK2 is done the same, independent of the enzyme run. In summary, background signal is defined in the absence of enzyme and uninhibited signal is defined in the presence of vehicle (2% DMSO) alone. Compounds were evaluated in an 11 point dose-response ranging from […] to 0.34 nM. IC50 values of compounds are determined using a 4 parameter logistical fit of emission ratio as a function of the concentration of compound.

JAK2 = JAK2 (Homo sapiens (Human), UniProt O60674); assay: JAK2 enzyme activity assay (Thermo Fisher SelectScreen, Z-lyte); type: biochemical; conditions: read-out: JAK2 Inhibition IC50
Sequence of JAK2 (O60674 whole entry): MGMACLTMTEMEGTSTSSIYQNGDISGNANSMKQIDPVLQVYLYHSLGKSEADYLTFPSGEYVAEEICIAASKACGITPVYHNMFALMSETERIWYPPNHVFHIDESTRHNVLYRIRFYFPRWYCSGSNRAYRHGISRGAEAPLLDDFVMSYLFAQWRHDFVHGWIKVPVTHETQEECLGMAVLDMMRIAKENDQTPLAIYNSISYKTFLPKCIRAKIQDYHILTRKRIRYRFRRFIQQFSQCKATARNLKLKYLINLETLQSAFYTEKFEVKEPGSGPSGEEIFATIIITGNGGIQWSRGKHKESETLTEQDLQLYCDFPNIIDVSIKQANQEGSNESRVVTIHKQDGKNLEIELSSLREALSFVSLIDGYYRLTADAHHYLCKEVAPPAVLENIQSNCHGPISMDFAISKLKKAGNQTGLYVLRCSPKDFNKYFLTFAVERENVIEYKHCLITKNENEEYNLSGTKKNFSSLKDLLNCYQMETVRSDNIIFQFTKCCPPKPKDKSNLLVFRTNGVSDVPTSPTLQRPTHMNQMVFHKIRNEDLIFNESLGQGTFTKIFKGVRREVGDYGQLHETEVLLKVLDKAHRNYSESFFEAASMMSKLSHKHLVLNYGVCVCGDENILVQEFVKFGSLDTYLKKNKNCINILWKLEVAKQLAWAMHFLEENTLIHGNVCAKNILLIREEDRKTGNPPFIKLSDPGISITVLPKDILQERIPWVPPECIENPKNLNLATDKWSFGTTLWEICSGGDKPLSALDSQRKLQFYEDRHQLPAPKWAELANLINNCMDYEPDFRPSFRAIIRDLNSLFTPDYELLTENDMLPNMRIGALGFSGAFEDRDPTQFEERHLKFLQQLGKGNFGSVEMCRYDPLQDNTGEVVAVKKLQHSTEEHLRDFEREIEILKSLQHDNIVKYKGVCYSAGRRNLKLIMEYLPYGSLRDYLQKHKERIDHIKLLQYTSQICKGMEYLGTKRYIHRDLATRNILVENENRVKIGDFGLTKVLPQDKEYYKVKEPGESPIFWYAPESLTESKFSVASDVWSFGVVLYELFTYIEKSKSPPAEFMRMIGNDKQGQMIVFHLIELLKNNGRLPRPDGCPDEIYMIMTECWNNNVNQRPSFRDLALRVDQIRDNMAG
Procedure: as §3, §4
JAK2: The 2×JAK2/Tyr 06 mixture is prepared in 50 mM HEPES pH 7.5, 0.01% BRIJ-35, 10 mM MgCl2, 1 mM EGTA. The final 10 μL Kinase Reaction consists of 0.12-0.5 ng JAK2 and 2 M Tyr 06 in 50 mM HEPES pH 7.5, 0.01% BRIJ-35, 10 mM MgCl2, 1 mM EGTA. After the one hour Kinase Reaction incubation, 5 μL of a 1:128 dilution of Development Reagent A is added.
as §5

JAK3 (a.a. 781-1124) = JAK3 (a.a. 781-1124) (Homo sapiens (Human), UniProt P52333); assay: JAK3 enzyme activity assay (SRCtide phosphorylation, Caliper); type: biochemical; conditions: 1 uM ATP; read-out: JAK3 Inhibition IC50
Sequence of JAK3 (a.a. 781-1124) (P52333 781-1124): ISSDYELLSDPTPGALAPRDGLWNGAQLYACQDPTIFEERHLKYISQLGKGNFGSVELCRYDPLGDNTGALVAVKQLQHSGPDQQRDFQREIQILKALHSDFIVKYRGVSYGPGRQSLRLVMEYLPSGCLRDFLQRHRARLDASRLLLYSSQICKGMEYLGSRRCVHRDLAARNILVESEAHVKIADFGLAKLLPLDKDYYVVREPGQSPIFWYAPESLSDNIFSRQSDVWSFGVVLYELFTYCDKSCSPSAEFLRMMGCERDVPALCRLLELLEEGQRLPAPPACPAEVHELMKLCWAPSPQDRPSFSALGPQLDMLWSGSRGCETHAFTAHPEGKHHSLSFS
Procedure: as §3
Kinase reactions were run in a 384-well Greiner plate with 2% final DMSO concentration under the buffer conditions of 20 mM HEPES, pH 7.5, 10 mM MgCl2, 0.01% BSA, and 0.0005% Tween-20. The kinase reaction components were 2.5 nM JAK3, 1 μM SRCtide peptide and 1 uM ATP. Examples were tested in dose-response starting at 2 M (11 concentrations, 3-fold serial dilution, duplicate reactions). The reactions were incubated at room temperature for 40 minutes, then stopped by adding a 1:1 volume of 30 mM EDTA in 20 mM HEPES, pH 7.5 (15 mM EDTA final). After the reaction was stopped, the phosphorylated and unphosphorylated peptides were separated and quantified using a Caliper LC3000/EZ-Reader system and HTS Well Analyzer Software (Caliper, A PerkinElmer Company, Hopkinton, Mass.). GraFit (Erithacus Software Ltd., Horley, U.K.) was used to calculate inhibitor potency by fitting dose-response data to the 4-parameter logistical IC50 equation.

[2] = system: IL-12 stimulated STAT4 phosphorylation on Tyr693 (JAK2/TYK2); assay: JAK2/TYK2 cellular target modulation: IL-12 stimulated phospho-STAT4 in PBMC; type: cell-based; conditions: human PBMC, IL-12 1.7 ng/ml; read-out: IL12-STAT4 IC50
Source text: as §1, §2

[3] = system: IL-2 stimulated STAT5 phosphorylation on Tyr694 (JAK1/3); assay: JAK1/3 cellular target modulation: IL-2 stimulated phospho-STAT5 in PBMC; type: cell-based; conditions: human PBMC, IL-2 25 ng/ml; read-out: IL2-STAT5 IC50
Source text: as §1, §2

JAK1 = JAK1 (Homo sapiens (Human), UniProt P23458); assay: JAK1 enzyme activity assay (Thermo Fisher SelectScreen, Z-lyte); type: biochemical; conditions: read-out: JAK1 Inhibition IC50
Sequence of JAK1 (P23458 whole entry): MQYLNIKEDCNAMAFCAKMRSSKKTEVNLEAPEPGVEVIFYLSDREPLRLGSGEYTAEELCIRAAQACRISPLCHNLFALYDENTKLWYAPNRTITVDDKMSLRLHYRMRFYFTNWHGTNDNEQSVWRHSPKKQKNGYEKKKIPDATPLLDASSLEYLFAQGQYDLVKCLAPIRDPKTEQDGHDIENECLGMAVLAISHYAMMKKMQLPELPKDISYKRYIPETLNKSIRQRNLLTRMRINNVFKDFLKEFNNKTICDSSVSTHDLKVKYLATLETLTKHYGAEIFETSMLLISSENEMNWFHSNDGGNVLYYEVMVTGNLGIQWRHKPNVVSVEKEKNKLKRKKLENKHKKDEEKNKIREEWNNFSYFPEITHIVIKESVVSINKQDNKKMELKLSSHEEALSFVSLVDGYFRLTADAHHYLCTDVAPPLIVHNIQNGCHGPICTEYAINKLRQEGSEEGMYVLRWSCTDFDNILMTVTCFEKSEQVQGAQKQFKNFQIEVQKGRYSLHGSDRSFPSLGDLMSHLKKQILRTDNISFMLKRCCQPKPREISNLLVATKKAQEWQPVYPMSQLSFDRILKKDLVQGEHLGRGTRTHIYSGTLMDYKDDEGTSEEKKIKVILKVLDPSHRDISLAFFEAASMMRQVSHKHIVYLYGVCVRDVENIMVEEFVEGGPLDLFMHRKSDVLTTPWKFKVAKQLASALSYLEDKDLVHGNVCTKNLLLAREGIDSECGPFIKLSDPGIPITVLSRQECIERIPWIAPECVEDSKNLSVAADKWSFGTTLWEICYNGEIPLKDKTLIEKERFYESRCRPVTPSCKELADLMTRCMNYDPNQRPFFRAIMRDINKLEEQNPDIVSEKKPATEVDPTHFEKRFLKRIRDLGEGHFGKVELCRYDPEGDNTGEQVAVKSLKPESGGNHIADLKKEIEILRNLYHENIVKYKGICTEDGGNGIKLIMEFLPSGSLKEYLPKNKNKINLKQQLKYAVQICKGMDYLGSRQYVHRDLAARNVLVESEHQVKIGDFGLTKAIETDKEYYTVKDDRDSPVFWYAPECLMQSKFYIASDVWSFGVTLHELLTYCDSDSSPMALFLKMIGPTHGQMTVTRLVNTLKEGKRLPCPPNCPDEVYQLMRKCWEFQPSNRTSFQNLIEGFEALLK
Procedure: as §3, §4
JAK: The 2×JAK-enzyme/Tyr 06 mixture is prepared in 50 mM HEPES pH 6.5, 0.01% BRIJ-35, 10 mM MgCl2, 1 mM EGTA, 0.02% NaN3. The final 10 μL of the Kinase Reaction consists of 21.2-91.5 ng JAK and 2 M Tyr 06 in 50 mM HEPES pH 7.0, 0.01% BRIJ-35, 10 mM MgCl2, 1 mM EGTA, 0.01% NaN3. After the one hour Kinase Reaction incubation, 5 μL of a 1:128 dilution of Development Reagent is added.
as §5

IC50 [1] [nM]	IC50 (Tyk-2) [nM]	IC50 (JAK2) [nM]	IC50 (JAK3 (a.a. 781-1124)) [nM]	IC50 [2] [nM]	IC50 [3] [nM]	IC50 (JAK1) [nM]	Structure (SMILES)
≤ 100	≤ 10	≤ 10	≤ 10	≤ 100	≤ 100	≤ 10	C[C@H]1C[C@@H](Nc2c(-c3ncco3)cnc3[nH]ccc23)CN(C(=O)CC#N)C1 (single isomer, unassigned) [Example 10]
100 to 1000	10 to 100	10 to 100	≤ 10	100 to 1000	≤ 100	≤ 10	N#CCC(=O)N1CCC[C@@H](Nc2c(-c3ccn(C(F)F)n3)cnc3[nH]ccc23)C1 [Example 2, (R)-3-(3-((5-(1-(difluoromethyl)-1H-pyrazol-3-yl)-1H-pyrrolo[2,3-b]pyridin-4-yl)amino)piperidin-1-yl)-3-oxopropanenitrile]
> 1000	100 to 1000	100 to 1000	10 to 100	–	100 to 1000	100 to 1000	O[C@H]1CC[C@@H](Nc2c(-c3ccccn3)cnc3[nH]ccc23)C1 [Example 12, (1S,3R)-3-((5-(pyridin-2-yl)-1H-pyrrolo[2,3-b]pyridin-4-yl)amino)cyclopentan-1-ol]
> 1000	10 to 100	10 to 100	≤ 10	–	100 to 1000	≤ 10	N#CCC(=O)N1CCC[C@@H](Nc2c(-c3nc(C(N)=O)co3)cnc3[nH]ccc23)C1 [Example 14, (R)-2-(4-((1-(2-cyanoacetyl)piperidin-3-yl)amino)-1H-pyrrolo[2,3-b]pyridin-5-yl)oxazole-4-carboxamide]
> 1000	100 to 1000	100 to 1000	10 to 100	–	100 to 1000	10 to 100	N#CCC(=O)N1CCC[C@@H](Nc2c(-c3cncs3)cnc3[nH]ccc23)C1 [Example 16, (R)-3-oxo-3-(3-((5-(thiazol-5-yl)-1H-pyrrolo[2,3-b]pyridin-4-yl)amino)piperidin-1-yl)propanenitrile]
100 to 1000	10 to 100	10 to 100	10 to 100	–	≤ 100	≤ 10	N#CCC(=O)N1CCC[C@@H](Nc2c(C#N)cnc3[nH]ccc23)C1 [Example 25, (R)-4-((1-(2-cyanoacetyl)piperidin-3-yl)amino)-1H-pyrrolo[2,3-b]pyridine-5-carbonitrile]
–	10 to 100	10 to 100	≤ 10	> 1000	100 to 1000	≤ 10	CNC(=O)c1csc(-c2cnc3[nH]ccc3c2N[C@@H]2CCCN(C(=O)CC#N)C2)n1 [Example 35, (R)-2-(4-((1-(2-cyanoacetyl)piperidin-3-yl)amino)-1H-pyrrolo[2,3-b]pyridin-5-yl)-N-methylthiazole-4-carboxamide]
> 1000	10 to 100	≤ 10	≤ 10	–	> 1000	10 to 100	CNC(=O)c1cnc(-c2cnc3[nH]ccc3c2N[C@@H]2CCCN(C(=O)CC#N)C2)o1 [Example 39, (R)-2-(4-((1-(2-cyanoacetyl)piperidin-3-yl)amino)-1H-pyrrolo[2,3-b]pyridin-5-yl)-N-methyloxazole-5-carboxamide]
≤ 100	≤ 10	≤ 10	≤ 10	–	≤ 100	≤ 10	CNC(=O)c1cnc(-c2cnc3[nH]ccc3c2N[C@@H]2CCCN(C(=O)CC#N)C2)s1 [Example 53, (R)-2-(4-((1-(2-cyanoacetyl)piperidin-3-yl)amino)-1H-pyrrolo[2,3-b]pyridin-5-yl)-N-methylthiazole-5-carboxamide]
> 1000	100 to 1000	100 to 1000	10 to 100	–	100 to 1000	≤ 10	CNCCOc1cccc(-c2cnc3[nH]ccc3c2N[C@@H]2CCCN(C(=O)CC#N)C2)n1 [Example 58, (R)-3-(3-((5-(6-(2-(methylamino)ethoxy)pyridin-2-yl)-1H-pyrrolo[2,3-b]pyridin-4-yl)amino)piperidin-1-yl)-3-oxopropanenitrile hydrochloride]
> 1000	> 1000	100 to 1000	100 to 1000	–	100 to 1000	≤ 10	CS(=O)(=O)c1cccc(-c2cnc3[nH]ccc3c2N[C@@H]2CCCN(C(=O)CC#N)C2)c1 [Example 59, (R)-3-(3-((5-(3-(methylsulfonyl)phenyl)-1H-pyrrolo[2,3-b]pyridin-4-yl)amino)piperidin-1-yl)-3-oxopropanenitrile]
100 to 1000	10 to 100	10 to 100	≤ 10	–	≤ 100	≤ 10	CC(=O)c1cnc(-c2cnc3[nH]ccc3c2N[C@@H]2CCCN(C(=O)CC#N)C2)o1 [Example 66, (R)-3-(3-((5-(5-acetyloxazol-2-yl)-1H-pyrrolo[2,3-b]pyridin-4-yl)amino)piperidin-1-yl)-3-oxopropanenitrile]
